In ChEMBL document CHEMBL6120999, “Total Synthesis and Anti-Inflammatory Activity of Tectoridin and Related Isoflavone Glucosides” (J Nat Prod, 2025):
Calls of active or inactive are those of the source. No cut-off for these calls is given here.

Assays:
RAW264.7 [1] = test: Anti-inflammatory activity in mouse RAW264.7 cells assessed as inhibition of LPS-induced NO production at 25 to 50 uM preincubated for 1 hr followed by LPS stimulation for 24 hrs by Griess reagent assay; assay type: functional, cell-based; conditions: dose 25-50 µM, time 25.0 hrs
RAW264.7 [2] = test: Cytotoxicity against mouse RAW264.7 cells assessed as effect on cell viability at 50 uM measured after 24 hrs by CCK-8 assay; assay type: toxicity, cell-based; conditions: raw264.7, 24 h
RAW264.7 [3] = test: Anti-inflammatory activity against LPS-induced mouse RAW264.7 cells assessed as reduction in IL-1beta gene expression at 50 uM treated for 24 hrs by RT-qPCR analysis relative to control; assay type: functional; design: scale not given: the % may be the effect or the level left
RAW264.7 [4] = test: Anti-inflammatory activity against LPS-induced mouse RAW264.7 cells assessed as change in IL-6 gene expression at 50 uM treated for 24 hrs by RT-qPCR analysis; assay type: functional, cell-based
RAW264.7 [5] = test: Anti-inflammatory activity against LPS-induced mouse RAW264.7 cells assessed as effect on TNF-alpha gene expression at 50 uM treated for 24 hrs by RT-qPCR analysis; assay type: functional, cell-based
RAW264.7 [6] = test: Anti-inflammatory activity against LPS-induced mouse RAW264.7 cells assessed as reduction in TNF-alpha gene expression at 50 uM treated for 24 hrs by RT-qPCR analysis relative to control; assay type: functional; design: scale not given: the % may be the effect or the level left
RAW264.7 [7] = test: Anti-inflammatory activity against LPS-induced mouse RAW264.7 cells assessed as decrease in TNF-alpha gene expression by RT-qPCR analysis; assay type: functional, cell-based; conditions: dose 10-50 µM
RAW264.7 [8] = test: Anti-inflammatory activity against LPS-induced mouse RAW264.7 cells assessed as decrease in IL-6 gene expression at 50 uM treated for 24 hrs by RT-qPCR analysis relative to control; assay type: functional; design: scale not given: the % may be the effect or the level left
RAW264.7 [9] = test: Anti-inflammatory activity against LPS-induced mouse RAW264.7 cells assessed as decrease in IL-1beta gene expression by RT-qPCR analysis; assay type: functional, cell-based; conditions: dose 10-50 µM
RAW264.7 [10] = test: Anti-inflammatory activity in mouse RAW264.7 cells assessed as inhibition of LPS-induced NO production preincubated for 1 hr followed by LPS stimulation for 24 hrs by Griess reagent assay; assay type: functional, cell-based; conditions: for Activity: time 25.0 hrs
RAW264.7 [11] = test: Anti-inflammatory activity against LPS-induced mouse RAW264.7 cells assessed as inhibition in TNF-alpha release at 50 uM by ELISA; assay type: functional, cell-based
RAW264.7 [12] = test: Anti-inflammatory activity against LPS-induced mouse RAW264.7 cells assessed as inhibition in IL-6 release at 50 uM by ELISA; assay type: functional, cell-based
RAW264.7 [13] = test: Anti-inflammatory activity in mouse RAW264.7 cells assessed as reduction in LPS-induced NO production at 50 uM preincubated for 1 hr followed by LPS stimulation for 24 hrs by Griess reagent assay relative to control; assay type: functional; design: scale not given: the % may be the effect or the level left; conditions: time 25 hrs
RAW264.7 [14] = test: Anti-inflammatory activity against LPS-induced mouse RAW264.7 cells assessed as decrease in IL-6 gene expression by RT-qPCR analysis; assay type: functional, cell-based; conditions: dose 10-50 µM
RAW264.7 [15] = test: Anti-inflammatory activity against LPS-induced mouse RAW264.7 cells assessed as reduction in IL-1beta gene expression at 50 uM treated for 24 hrs by RT-qPCR analysis; assay type: functional, cell-based

| IC50 (RAW264.7 [10]) [µM] | SMILES | Activity (RAW264.7 [1]) | Activity (RAW264.7 [2]) | Activity (RAW264.7 [3]) [%] | Activity (RAW264.7 [4]) | Activity (RAW264.7 [5]) | Activity (RAW264.7 [6]) [%] | Activity (RAW264.7 [7]) | Activity (RAW264.7 [8]) [%] | Activity (RAW264.7 [9]) | Activity (RAW264.7 [10]) | Activity (RAW264.7 [11]) | Activity (RAW264.7 [12]) | Activity (RAW264.7 [13]) [%] | Activity (RAW264.7 [14]) | Activity (RAW264.7 [15]) |
| --- | --- | --- | --- | --- | --- | --- | --- | --- | --- | --- | --- | --- | --- | --- | --- | --- |
|  | COc1cc(C(=O)OC[C@H]2O[C@@H](Oc3cc4occ(-c5ccc(O)cc5)c(=O)c4c(O)c3OC)[C@H](O)[C@@H](O)[C@@H]2O)ccc1O | inactive | Non-toxic | 4.1 | Not active; Increase In Il-6 Gene Expression Observed | Not active; Increase In Tnf-Alpha Gene Expression Observed |  |  |  |  |  |  |  |  |  |  |
|  | COc1c(O[C@@H]2O[C@H](CO)[C@@H](O)[C@H](O)[C@H]2O)cc2occ(-c3ccc(O)cc3)c(=O)c2c1O [TECTORIDIN] | inactive | Non-toxic | 31.2 | inactive | inactive |  |  |  |  |  |  |  |  |  |  |
| 51.7 | COc1c(O)cc2occ(-c3ccc(O)cc3)c(=O)c2c1O [TECTORIGENIN] |  | Non-toxic | 90.8 |  |  | 40 | Dose-dependent-effect | 87.8 | Dose-dependent-effect | Dose-dependent-effect | Active | Active | 48.4 | Dose-dependent-effect |  |
| 26.8 | COc1c(O)cc(O)c2c(=O)c(-c3ccc(O)cc3)coc12 [PSI-TECTORIGENIN] |  | Non-toxic | 61 |  |  | 46.3 | Dose-dependent-effect | 56 | Dose-dependent-effect | Dose-dependent-effect | Active | Active | ~100 | Dose-dependent-effect |  |
|  | COc1c(O[C@@H]2O[C@H](CO)[C@@H](O)[C@H](O)[C@H]2O)cc(O)c2c(=O)c(-c3ccc(O)cc3)coc12 | inactive | Non-toxic | 14.4 | inactive | inactive |  |  |  |  |  |  |  |  |  |  |
|  | COc1c(O[C@@H]2O[C@H](CO)[C@@H](O)[C@H](O)[C@H]2O)cc2occ(-c3ccc(O[C@@H]4O[C@H](CO)[C@@H](O)[C@H](O)[C@H]4O)cc3)c(=O)c2c1O | inactive | Non-toxic |  | inactive | inactive |  |  |  |  |  |  |  |  |  | Not active; Increase In Il-1Beta Gene Expression Observed |
